Like-named read-outs stand apart in the source and are kept apart here.
Legend:
[1] = pharmacokinetics of 16 ginsenosides in rat plasma after oral administration of RGS; type: in vivo; conditions: for Cmax / MRT / half-life / Tmax / C Max / T1/2 / T Max: SD, rat, po, 100 mg/kg
Protocol: The SD rats were randomly allocated into two groups, i.e., normal group and SA-treated group.
Blood samples were collected from the postocular vein at 0.083, 0.25, 0.5, 1, 2, 3, 4, 6, 8, 12 and 24 h after SA injection. Blood sample immediately was centrifuged at 18,000 rpm for 10 min. Plasma was withdrawn (0.15 mL) and diluted with 0.3 mL of acetonitrile and 20 µL of the IS (6 µg/mL). After 30 min, the mixture was clarified by centrifugation at 18,000 rpm for 10 min at 4 °C. The supernatant was dried under a stream of N2, and the residue was dissolved in 0.1 mL of methanol and stored at −20 °C for further analysis.
The UPLC-MS/MS system (Waters Xeve TQ, Waters, Cork, Ireland) with a column C18 (ACQUITY, 1.7 μm, 2.1 × 50 mm, Waters, Cork, Ireland) were adopted at 35 °C. Water (A) and acetonitrile (B) were used as mobile phases at a flow rate of 0.4 mL/min. The treatment of elution was performed according to following pattern: 10% B for 0–5.0 min; 10→15% B for 5.0–8.0 min; 15→25% B for 8.0–12.0 min; 25→40% for 12.0–20.0 min; 40→50% B for 20.0–25.0 min; 50→65% B for 25.0–30.0 min. With regard to mass detection, the negative mode of electrospray ionization source was adopted. The optimized parameters of multiple reactions monitoring (MRM) system including collision energy, Q1 Pre Bias, Q3 Pre Bias, collision energy and MRM transition of the 16 ginsenosides are shown in Table 1.
Based on a non-compartmental method, WinNonlin software (Phoenix, version 6.1) was employed to calculate the pharmacokinetic parameters. The statistical difference between groups was analyzed by One-Way ANOVA analysis using SPSS Version 17.0. (SPSS Inc., Chicago, IL, USA). The difference between groups was regarded significant when p < 0.05. We first normalized the pharmacokinetic data and then visualized them based on principal component analysis (PCA).

[2] = test system: scopolamine-induced learning ability impairment; design: method as in PMID 24503167; conditions: rats; cited from earlier work
[3] = plasma, model (scopolamine 1 mg/kg i.p.-treated) rats, oral RGS single dose 100 mg/kg, plasma, mean ± S.D., n = 5, read-out: C Max
[4] = plasma, model (scopolamine 1 mg/kg i.p.-treated) rats, oral RGS single dose 100 mg/kg, plasma, mean ± S.D., n = 5, read-out: MRT
[5] = plasma, model (scopolamine 1 mg/kg i.p.-treated) rats, oral RGS single dose 100 mg/kg, plasma, mean ± S.D., n = 5, read-out: T1/2 (converted)
[6] = plasma, model (scopolamine 1 mg/kg i.p.-treated) rats, oral RGS single dose 100 mg/kg, plasma, mean ± S.D., n = 5, read-out: T Max
[7] = plasma, normal rats, oral RGS single dose 100 mg/kg, plasma, mean ± S.D., n = 5, read-out: C Max
[8] = plasma, normal rats, oral RGS single dose 100 mg/kg, plasma, mean ± S.D., n = 5, read-out: MRT
[9] = plasma, normal rats, oral RGS single dose 100 mg/kg, plasma, mean ± S.D., n = 5, read-out: T1/2 (converted)
[10] = plasma, normal rats, oral RGS single dose 100 mg/kg, plasma, mean ± S.D., n = 5, read-out: T Max
[11] = model (scopolamine 1 mg/kg i.p.-treated) rats, oral RGS single dose 100 mg/kg, plasma, mean ± S.D., n = 5
[12] = normal rats, oral RGS single dose 100 mg/kg, plasma, mean ± S.D., n = 5
[13] = in vivo, model (scopolamine 1 mg/kg i.p.-treated) rats, oral RGS single dose 100 mg/kg, plasma, mean ± S.D., n = 5, read-out: C Max
[14] = in vivo, model (scopolamine 1 mg/kg i.p.-treated) rats, oral RGS single dose 100 mg/kg, plasma, mean ± S.D., n = 5, read-out: MRT
[15] = in vivo, model (scopolamine 1 mg/kg i.p.-treated) rats, oral RGS single dose 100 mg/kg, plasma, mean ± S.D., n = 5, read-out: T1/2 (converted)
[16] = in vivo, model (scopolamine 1 mg/kg i.p.-treated) rats, oral RGS single dose 100 mg/kg, plasma, mean ± S.D., n = 5, read-out: T Max
[17] = in vivo, normal rats, oral RGS single dose 100 mg/kg, plasma, mean ± S.D., n = 5, read-out: C Max
[18] = in vivo, normal rats, oral RGS single dose 100 mg/kg, plasma, mean ± S.D., n = 5, read-out: MRT
[19] = in vivo, normal rats, oral RGS single dose 100 mg/kg, plasma, mean ± S.D., n = 5, read-out: T1/2 (converted)
[20] = in vivo, normal rats, oral RGS single dose 100 mg/kg, plasma, mean ± S.D., n = 5, read-out: T Max

SMILES	Cmax [1, 3] [ng/g]	MRT [1, 4] [h]	half-life [1, 5] [h]	Tmax [1, 6] [h]	Cmax [1, 7] [ng/g]	MRT [1, 8] [h]	half-life [1, 9] [h]	Tmax [1, 10] [h]	AUC 0-t [1, 11] [ng·h/g]	AUC 0-t [1, 12] [ng·h/g]	C Max ([1]; in vivo) [ng/g]	MRT ([1]; in vivo) [h]	T1/2 ([1]; in vivo) [h]	Cmax ([1]; in vivo, C Max) [ng/g]	MRT ([1]; in vivo, MRT) [h]	half-life ([1]; in vivo, T1/2) [h]	further results
CC(C)=CCCC(C)(OC1OC(COC2OC(CO)C(O)C(O)C2O)C(O)C(O)C1O)C1CCC2(C)C1C(O)CC1C3(C)CCC(OC4OC(CO)C(O)C(O)C4OC4OC(CO)C(O)C(O)C4O)C(C)(C)C3CCC12C (centres unmarked) [Rb1]	34.8 ± 2.7	6.5 ± 1.5	4.8 ± 1.1	4.1 ± 0.8	35.2 ± 4.9	6.2 ± 1.8	4.3 ± 0.8	4.6 ± 1.1	298.9 ± 11.7	255.6 ± 7.4	–	–	–	–	–	–	effect on scopolamine-induced learning ability impairment [2]: do not
CC(C)=CCCC(C)(OC1OC(COC2OCC(O)C(O)C2O)C(O)C(O)C1O)C1CCC2(C)C1C(O)CC1C3(C)CCC(OC4OC(CO)C(O)C(O)C4OC4OC(CO)C(O)C(O)C4O)C(C)(C)C3CCC12C (centres unmarked) [Rb2]	17.2 ± 2.1	7.9 ± 1.2	6.9 ± 1.2	1.5 ± 0.2	18.5 ± 2.5	8.6 ± 2.1	6.5 ± 1.5	1.5 ± 0.2	90.3 ± 8.2	89.6 ± 9.3	–	–	–	–	–	–	–
CC(C)=CCCC(C)(OC1OC(COC2OC(CO)C(O)C2O)C(O)C(O)C1O)C1CCC2(C)C1C(O)CC1C3(C)CCC(OC4OC(CO)C(O)C(O)C4OC4OC(CO)C(O)C(O)C4O)C(C)(C)C3CCC12C (centres unmarked) [Rc]	21 ± 4.8	8.9 ± 2.2	7.9 ± 3.1	1.5 ± 0.5	19.1 ± 2.9	9.6 ± 1.5	8.9 ± 3.2	1.5 ± 3.2	109.8 ± 10.2	102.3 ± 20.2	–	–	–	–	–	–	–
CC(C)=CCCC(C)(OC1OC(CO)C(O)C(O)C1O)C1CCC2(C)C1C(O)CC1C3(C)CCC(OC4OC(CO)C(O)C(O)C4OC4OC(CO)C(O)C(O)C4O)C(C)(C)C3CCC12C (centres unmarked) [Rd]	45.6 ± 2.9	7.7 ± 1.3	6.2 ± 1.9	2 ± 0.8	47.5 ± 2.6	8.6 ± 1.2	5.5 ± 5.6	1.5 ± 0.4	331.2 ± 11.2	321.5 ± 9.1	–	–	–	–	–	–	effect on scopolamine-induced learning ability impairment [2]: do not
CC(C)=CCCC(C)(OC1OC(CO)C(O)C(O)C1O)C1CCC2(C)C1C(O)CC1C3(C)CCC(O)C(C)(C)C3C(OC3OC(CO)C(O)C(O)C3OC3OC(C)C(O)C(O)C3O)CC12C (centres unmarked) [Re]	24.9 ± 6.9	8.6 ± 1.1	11.3 ± 2.9	0.5 ± 0.1	25.6 ± 2.6	9.6 ± 1.2	12.3 ± 2.6	0.5 ± 0.4	298.6 ± 21.2	278.3 ± 9.1	–	–	–	–	–	–	–
CC(C)=CCCC(C)(O)C1CCC2(C)C1C(O)CC1C3(C)CCC(O)C(C)(C)C3C(OC3OC(CO)C(O)C(O)C3OC3OC(CO)C(O)C(O)C3O)CC12C (centres unmarked) [Rf]	–	–	–	–	–	–	–	–	–	–	18.8 ± 2.6	7.4 ± 1.3	7.5 ± 1.5	17.6 ± 5.9	6.5 ± 1.2	6.6 ± 1.2	Tmax ([1]; in vivo, T Max): 2 ± 0.6 h
CC(C)=CCCC(C)(O)C1CCC2(C)C1C(O)CC1C3(C)CCC(OC4OC(CO)C(O)C(O)C4OC4OC(CO)C(O)C(O)C4O)C(C)(C)C3CCC12C (centres unmarked) [Rg3]	–	–	–	–	–	–	–	–	–	–	32.3 ± 4.6	22.5 ± 2.1	19.8 ± 1.5	29.6 ± 5.9	24.3 ± 1.2	21.3 ± 2.2	–
CC(C)=CCC=C(C)C1CCC2(C)C1C(O)CC1C3(C)CCC(OC4OC(CO)C(O)C(O)C4OC4OC(CO)C(O)C(O)C4O)C(C)(C)C3CCC12C (centres unmarked) [Rg5]	37.3 ± 2.8	25.6 ± 2.6	27.3 ± 3.6	8 ± 1.6	34.4 ± 2.6	22.2 ± 1.4	17.1 ± 2.5	4 ± 1.8	569.8 ± 10.2	415.6 ± 20.1	–	–	–	–	–	–	–
CC(C)=CCCC(C)(O)C1CCC2(C)C1C(O)CC1C3(C)CCC(O)C(C)(C)C3C(OC3OC(CO)C(O)C(O)C3O)CC12C (centres unmarked) [Rh1]	–	–	–	–	–	–	–	–	278.6 ± 12.8	215.5 ± 12.1	–	–	–	–	–	–	Cmax [1, 13]: 46.9 ± 7.8 ng/g; MRT [1, 14]: 11.2 ± 2 h; half-life [1, 15]: 8.9 ± 2.1 h; Tmax [1, 16]: 1.5 ± 0.3 h; Cmax [1, 17]: 41.2 ± 4.6 ng/g; MRT [1, 18]: 9.6 ± 2.1 h; half-life [1, 19]: 9.8 ± 2.5 h; Tmax [1, 20]: 1 ± 0.5 h
CC(C)=CCCC(C)(O)C1CCC2(C)C1C(O)CC1C3(C)CCC(OC4OC(CO)C(O)C(O)C4O)C(C)(C)C3CCC12C (centres unmarked) [Rh2]	–	–	–	–	–	–	–	–	369.8 ± 8.0	356.8 ± 12.8	–	–	–	–	–	–	Cmax [1, 13]: 30.2 ± 4.8 ng/g; MRT [1, 14]: 11.8 ± 2 h; half-life [1, 15]: 7.6 ± 2.1 h; Tmax [1, 16]: 2 ± 0.3 h; Cmax [1, 17]: 26.9 ± 2.6 ng/g; MRT [1, 18]: 12.3 ± 2.1 h; half-life [1, 19]: 9.8 ± 2.5 h; Tmax [1, 20]: 2 ± 0.5 h
CC(C)=CCC=C(C)C1CCC2(C)C1C(O)CC1C3(C)CCC(OC4OC(CO)C(O)C(O)C4O)C(C)(C)C3CCC12C (centres unmarked) [Rh3]	–	–	–	–	–	–	–	–	–	–	37.6 ± 4.8	19.8 ± 2.8	13.6 ± 3.1	24.3 ± 3.9	15.6 ± 3.5	12.6 ± 3.2	T Max ([1]; in vivo): 10.2 ± 1.5 h; Tmax ([1]; in vivo, T Max): 14.4 ± 1.2 h
CC(C)=CCC=C(C)C1CCC2(C)C1C(O)CC1C3(C)CCC(O)C(C)(C)C3C(OC3OC(CO)C(O)C(O)C3O)CC12C (centres unmarked) [Rh4]	–	–	–	–	–	–	–	–	–	–	38.7 ± 4.8	12.3 ± 2.0	9.9 ± 2.1	35.6 ± 3.6	11.2 ± 2.1	8.8 ± 1.5	Tmax ([1]; in vivo, T Max): 4 ± 0.5 h
C=C(CCC=C(C)C)C1CCC2(C)C1C(O)CC1C3(C)CCC(OC4OC(CO)C(O)C(O)C4OC4OC(CO)C(O)C(O)C4O)C(C)(C)C3CCC12C (centres unmarked) [Rk1]	50.1 ± 3.7	26.8 ± 2.5	29.3 ± 2.1	6 ± 0.8	32.1 ± 5.9	21.3 ± 1.8	18.1 ± 9.8	6 ± 0.9	736.8 ± 17.7	556.8 ± 13.4	–	–	–	–	–	–	–
C=C(CCC=C(C)C)C1CCC2(C)C1C(O)CC1C3(C)CCC(O)C(C)(C)C3C(OC3OC(CO)C(O)C(O)C3O)CC12C (centres unmarked) [Rk3]	–	–	–	–	–	–	–	–	–	–	16.6 ± 2.8	8.9 ± 1.8	6.9 ± 2.1	14.2 ± 3.9	9.6 ± 1.5	6.5 ± 0.9	T Max ([1]; in vivo): 1.5 ± 0.5 h; Tmax ([1]; in vivo, T Max): 1 ± 0.2 h

— article PMC6600263, “Neuroprotective Effects of Red Ginseng Saponins in Scopolamine-Treated Rats and Activity Screening Based on Pharmacokinetics” (Molecules, 2019)
